Source: paper PMC8597422, “Activity-based protein profiling reveals deubiquitinase and aldehyde dehydrogenase targets of a cyanopyrrolidine probe” (RSC Medicinal Chemistry, 2021)

Columns and labels:
[1] = target: T1, Ubiquitin carboxy-terminal hydrolase L1 (UCHL1) (Homo sapiens, UniProt P09936); assay: fluorescence polarization assay with Ub-Lys-TAMRA, […] min preincubation; covalent adduct by LC-ESI-MS; cellular HTRF; assay type: biochemical
T1 construct: recombinant UCHL1
T1 sequence (P09936 1-220): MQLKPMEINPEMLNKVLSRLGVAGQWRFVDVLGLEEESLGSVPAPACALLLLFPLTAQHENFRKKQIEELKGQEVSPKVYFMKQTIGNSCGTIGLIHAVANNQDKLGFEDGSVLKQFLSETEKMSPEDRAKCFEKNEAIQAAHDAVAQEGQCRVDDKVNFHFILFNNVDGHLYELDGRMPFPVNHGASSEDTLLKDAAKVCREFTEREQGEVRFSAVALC

ALDH2 [2] = target: T2, ALDH2 (Homo sapiens, UniProt P05091); assay: competitive ABPP against MT16-205 in HEK293 cells (LFQ proteomics); assay type: cell-based
T2 sequence (P05091 18-517): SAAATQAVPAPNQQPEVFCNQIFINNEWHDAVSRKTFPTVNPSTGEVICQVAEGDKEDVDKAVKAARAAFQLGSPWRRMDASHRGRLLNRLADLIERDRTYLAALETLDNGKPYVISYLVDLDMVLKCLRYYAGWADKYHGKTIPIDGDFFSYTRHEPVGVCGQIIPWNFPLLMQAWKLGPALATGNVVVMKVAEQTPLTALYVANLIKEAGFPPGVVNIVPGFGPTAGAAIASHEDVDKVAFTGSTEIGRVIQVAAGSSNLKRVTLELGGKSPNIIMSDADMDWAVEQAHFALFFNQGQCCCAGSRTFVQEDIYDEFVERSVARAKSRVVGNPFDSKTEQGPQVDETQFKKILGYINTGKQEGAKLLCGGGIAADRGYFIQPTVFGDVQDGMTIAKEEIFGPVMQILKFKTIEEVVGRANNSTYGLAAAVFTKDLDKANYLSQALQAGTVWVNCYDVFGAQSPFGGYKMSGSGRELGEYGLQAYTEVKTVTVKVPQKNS

USP30 = target: T3, USP30 (Homo sapiens, UniProt Q70CQ3); assay: DUB selectivity panel at […] (FP / FI in vitro assays); assay type: biochemical
T3 sequence (Q70CQ3 1-517): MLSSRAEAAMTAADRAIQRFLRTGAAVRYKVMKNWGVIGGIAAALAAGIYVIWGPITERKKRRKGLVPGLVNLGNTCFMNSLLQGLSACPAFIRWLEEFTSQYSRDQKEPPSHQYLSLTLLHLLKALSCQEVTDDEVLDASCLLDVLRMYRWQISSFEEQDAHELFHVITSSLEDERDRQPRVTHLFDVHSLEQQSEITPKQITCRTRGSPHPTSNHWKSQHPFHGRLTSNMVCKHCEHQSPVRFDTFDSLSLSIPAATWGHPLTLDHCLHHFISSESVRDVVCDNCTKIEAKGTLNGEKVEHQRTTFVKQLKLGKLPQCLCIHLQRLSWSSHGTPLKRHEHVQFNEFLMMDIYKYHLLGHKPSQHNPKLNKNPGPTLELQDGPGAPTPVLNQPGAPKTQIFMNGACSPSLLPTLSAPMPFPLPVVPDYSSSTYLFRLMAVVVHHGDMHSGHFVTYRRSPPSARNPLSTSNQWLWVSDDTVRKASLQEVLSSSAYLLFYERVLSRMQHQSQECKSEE

ALDH2 [3] = target: T2, ALDH2; assay: ABPP in HEK293 cells, LFQ chemical proteomics, competed by MT16-001; assay type: cell-based
ALDH9A1 = ALDH9A1 (Homo sapiens, UniProt P49189); assay: ABPP in HEK293 cells: streptavidin pulldown immunoblot and LFQ chemical proteomics; assay type: cell-based
Chain of ALDH9A1 (P49189 whole entry): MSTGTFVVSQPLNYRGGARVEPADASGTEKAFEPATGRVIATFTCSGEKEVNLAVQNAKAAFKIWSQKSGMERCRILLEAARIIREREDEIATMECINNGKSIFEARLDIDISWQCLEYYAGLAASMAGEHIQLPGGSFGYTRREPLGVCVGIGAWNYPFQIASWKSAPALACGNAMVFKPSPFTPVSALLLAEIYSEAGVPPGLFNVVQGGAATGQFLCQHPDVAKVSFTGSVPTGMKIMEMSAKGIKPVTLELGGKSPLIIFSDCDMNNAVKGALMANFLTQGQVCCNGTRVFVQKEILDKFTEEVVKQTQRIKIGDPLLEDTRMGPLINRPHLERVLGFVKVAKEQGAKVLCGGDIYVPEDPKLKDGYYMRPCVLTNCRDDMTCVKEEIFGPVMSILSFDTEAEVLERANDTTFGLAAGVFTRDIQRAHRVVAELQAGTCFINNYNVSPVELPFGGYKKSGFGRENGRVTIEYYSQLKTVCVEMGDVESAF

[4] = target: T1, Ubiquitin carboxy-terminal hydrolase L1 (UCHL1); assay: fluorescence polarization assay with Ub-Lys-TAMRA, […] min preincubation; covalent adduct by LC-ESI-MS; ABPP pulldown; assay type: biochemical

N#CN1CC[C@H](C(=O)Nc2ncc(-c3ccccc3)s2)C1 [MT16-001]
IC50 [1]: 0.58 ± 0.025 µM | competitive ABPP against MT16-205 in HEK293 cells (LFQ proteomics) (ALDH2 [2]): Four targets, ALDH2, ALDH9A1, GATD3A and UCHL1, responded to parent compound MT16-001 in a concentration dependent manner.

N#CN1CC[C@H](C(=O)Nc2nc(-c3ccccc3)cs2)C1 [MT16-009]
inhibition at 1 µM (USP30): 50%

C#Cc1ccc(-c2cnc(NC(=O)[C@H]3CCN(C#N)C3)s2)cc1 [MT16-205]
ABPP in HEK293 cells, LFQ chemical proteomics, competed by MT16-001 (ALDH2 [3]): ALDH2, ALDH9A1, and GATD3A were confirmed as the genuine targets of MT16-001, MT16-205 and MT16-009 | ABPP in HEK293 cells: streptavidin pulldown immunoblot and LFQ chemical proteomi (ALDH9A1): also ALDH9A1, which was one of the off-targets of MT16-205 in HEK293 cells | IC50 [4]: 0.6 ± 0.078 µM
